We go through 5 compounds from publication PMC9866482, “Determination of Chemical Composition and Investigation of Biological Activities of Ocimum basilicum L” (Molecules, 2023).

Marks after values point to notes of the source that are not given here.

The subject of experiment [1] is Staphylococcus aureus ATCC 29213. Kind of experiment: MIC and MBC by microdilution. Format: cell-based. The following applies: ATCC29213, head does not say MIC or MBC, read-out: Controls (MIC of positive control). On the procedure:
(§1) The bacterial strains were revived by inoculation in Mueller–Hinton Agar (MHA) followed by incubation at 37 °C for 24 h. A bacterial suspension (0.5 McFarland) was prepared in sterile physiologic water (0.9% NaCl) from the obtained culture. The yeast strain was inoculated in Sabouraud’s agar (SA) and incubated at 25 °C for 48 h, then a yeast suspension (0.5 McFarland) was prepared in sterile physiological water. The Fungi strains were sub-cultured in SA and incubated at 25 °C for 5 days. Afterward, the culture was washed with 2 mL of sterile physiological water. The suspension was transferred to a sterile assay tube, where the heavy particles were allowed to settle for 5 min. The upper homogeneous suspensions were transferred to a new sterile tube and adjusted microscopically to about 10^4 CFU/mL. […] The minimum inhibitory concentration (MIC) is defined as the lowest concentration of EO or extract that can inhibit the growth of microorganisms. […] Mueller–Hinton broth (MHB) (Biokar, Beauvais, France) was used for bacteria, whereas Sabouraud broth (Biokar, Beauvais, France) was employed for yeast. The incubation was carried out at 37 °C for 24 h for the bacteria and at 25 °C for 48 h for the yeasts. However, MIC determination for fungi was carried out by the gradient plate method according to the protocol previously described. Chloramphenicol was used as a positive control for bacteria, while nystatin was used for yeasts and fungi. Minimum bactericidal concentration (MBC) corresponds to the lowest EO or extract concentration that can kill the microorganism. The same microdilution experiment used in determining the MIC was used.
(Broth dilution looks for growth in wells or tubes with falling amounts of substance.)

In experiment [2] the test system is Escherichia coli ATCC 25922. Briefly: MIC and MBC by microdilution. Format: cell-based. The following applies: ATCC25922, head does not say MIC or MBC, method names the control for MIC, read-out: Controls (MIC of positive control). On the procedure:
as §1

In experiment [3] the test system is Salmonella enterica Typhimurium ATCC 700408. Briefly: MIC and MBC by microdilution. Format: cell-based. The settings on record: head does not say MIC or MBC, read-out: Controls (MIC of positive control). On the procedure: as §1
The subject of experiment [4] is Bacillus subtilis ATCC 6633. Briefly: MIC and MBC by microdilution. Format: cell-based. The following applies: ATCC6633, head does not say MIC or MBC, read-out: Controls (MIC of positive control). On the procedure:
as §1

The test system of experiment [5] is Listeria monocytogenes ATCC 13932. Briefly: MIC and MBC by microdilution. The following applies: ATCC13932, head does not say MIC or MBC, read-out: Controls (MIC of positive control). Format: cell-based. On the procedure: as §1
In experiment [6] the test system is Proteus mirabilis ATCC 25933. Briefly: MIC and MBC by microdilution. The settings on record: ATCC25933, head does not say MIC or MBC, read-out: Controls (MIC of positive control). Format: cell-based. On the procedure: as §1
Experiment [7] concerns Staphylococcus aureus ATCC 29213. Kind of experiment: Disc diffusion assay. The settings on record: ATCC29213, disc with 10 µL EO or aqueous extract, chloramphenicol 30 µg, read-out: Diameters of the inhibition zones. Format: cell-based. On the procedure:
(§2) The bacterial strains were revived by inoculation in Mueller–Hinton Agar (MHA) followed by incubation at 37 °C for 24 h. A bacterial suspension (0.5 McFarland) was prepared in sterile physiologic water (0.9% NaCl) from the obtained culture. The yeast strain was inoculated in Sabouraud’s agar (SA) and incubated at 25 °C for 48 h, then a yeast suspension (0.5 McFarland) was prepared in sterile physiological water. The Fungi strains were sub-cultured in SA and incubated at 25 °C for 5 days. Afterward, the culture was washed with 2 mL of sterile physiological water. The suspension was transferred to a sterile assay tube, where the heavy particles were allowed to settle for 5 min. The upper homogeneous suspensions were transferred to a new sterile tube and adjusted microscopically to about 10^4 CFU/mL.
(§3) Briefly, the culture suspension was inoculated by swab on optimal culture media (MHA for bacteria and SA for yeasts and fungi). Afterward, six mm diameter sterile paper discs soaked in 10 µL of EO (mixed with 5% dimethyl sulfoxide (DMSO)) or aqueous extract were deposited on each plate. Chloramphenicol (30 µg) was used as a positive control for bacteria, and nystatin (100 I.U.) was used as a positive control for yeasts and fungi, while DMSO (10 µL; 5%) as a negative control. Incubation was then conducted at 37 °C for 24 h, 25 °C for 48 h, and 25 °C for 72 h for bacteria, yeasts, and fungi, respectively. After incubation, the diameters of the inhibition zones were measured in millimeters, and the results were expressed as the mean ± standard deviation (SD) of three replicates.
Background: Agar diffusion results depend on both activity and mobility in agar.

The subject of experiment [8] is Escherichia coli ATCC 25922. Kind of experiment: Disc diffusion assay. Format: cell-based. The following applies: ATCC25922, disc with 10 µL EO or aqueous extract, chloramphenicol 30 µg, read-out: Diameters of the inhibition zones. On the procedure:
as §2, §3

Experiment [9] has as its system Salmonella enterica Typhimurium ATCC 700408. Kind of experiment: Disc diffusion assay. Format: cell-based. The settings on record: disc with 10 µL EO or aqueous extract, chloramphenicol 30 µg, read-out: Diameters of the inhibition zones. On the procedure:
as §2, §3

In experiment [10] the test system is Bacillus subtilis ATCC 6633. Briefly: Disc diffusion assay. The settings on record: disc with 10 µL EO or aqueous extract, chloramphenicol 30 µg. Format: cell-based. On the procedure:
as §2, §3

The subject of experiment [11] is Listeria monocytogenes ATCC 13932. Kind of experiment: Disc diffusion assay. Format: cell-based. The following applies: ATCC13932, disc with 10 µL EO or aqueous extract, chloramphenicol 30 µg, read-out: Diameters of the inhibition zones. On the procedure:
as §2, §3

Experiment [12] has as its system Proteus mirabilis ATCC 25933. Briefly: Disc diffusion assay. Format: cell-based. The settings on record: ATCC25933, disc with 10 µL EO or aqueous extract, chloramphenicol 30 µg, read-out: Diameters of the inhibition zones. On the procedure:
as §2, §3

Details of experiment [13]: method as in PMID 35926753. The settings on record: LPS-treated rats, oral dose 500 mg/60 kg b.w. ref 109; cited from earlier work.
Experiment [14] can be described thus: Ferric reducing antioxidant power (FRAP) assay. The settings on record: mean of triplicates ± SD.
A short description of the next experiment: ABTS antioxidant assay. The settings on record: mean of triplicates ± SD.
The next experiment deals with tyrosinase (Agaricus bisporus, UniProt C7FF04). The following applies: basil EOs from different cultivars, arbutin as positive control ref 111; cited from earlier work.
The subject of experiment [15] is Candida albicans. Briefly: MIC and MBC by microdilution (yeast). Format: cell-based. The following applies: head does not say MIC or MBC. On the procedure:
as §1, with “Chloramphenicol was used as a positive control for bacteria, while nystatin was used for yeasts and fungi. Minimum bactericidal concentration (MBC) corresponds to the lowest EO or extract concentration that can kill the microorganism. The same microdilution experiment used in determining the MIC was used.” left out

Experiment [16] concerns Aspergillus niger. Kind of experiment: Disc diffusion assay. Format: cell-based. The settings on record: disc with 10 µL EO or aqueous extract, nystatin 100 I.U. On the procedure:
as §2, §3

Experiment [17] relates to Trichophyton rubrum. Kind of experiment: Disc diffusion assay. The following applies: disc with 10 µL EO or aqueous extract, nystatin 100 I.U. Format: cell-based. On the procedure: as §2, §3
The subject of experiment [18] is Candida albicans. Briefly: Disc diffusion assay. Format: cell-based. The following applies: disc with 10 µL EO or aqueous extract, nystatin 100 I.U. On the procedure: as §2, §3
For experiment [19], the system named is Aspergillus niger. Kind of experiment: MIC by gradient plate method, MBC. Format: cell-based. The settings on record: head does not say MIC or MBC. On the procedure: as §1, with “Chloramphenicol was used as a positive control for bacteria, while nystatin was used for yeasts and fungi. Minimum bactericidal concentration (MBC) corresponds to the lowest EO or extract concentration that can kill the microorganism. The same microdilution experiment used in determining the MIC was used.” left out

Experiment [20] deals with Trichophyton rubrum. Briefly: MIC by gradient plate method, MBC. Format: cell-based. The following applies: head does not say MIC or MBC. On the procedure:
as §1, with “Chloramphenicol was used as a positive control for bacteria, while nystatin was used for yeasts and fungi. Minimum bactericidal concentration (MBC) corresponds to the lowest EO or extract concentration that can kill the microorganism. The same microdilution experiment used in determining the MIC was used.” left out

tyrosinase, sequence (C7FF04 1-392): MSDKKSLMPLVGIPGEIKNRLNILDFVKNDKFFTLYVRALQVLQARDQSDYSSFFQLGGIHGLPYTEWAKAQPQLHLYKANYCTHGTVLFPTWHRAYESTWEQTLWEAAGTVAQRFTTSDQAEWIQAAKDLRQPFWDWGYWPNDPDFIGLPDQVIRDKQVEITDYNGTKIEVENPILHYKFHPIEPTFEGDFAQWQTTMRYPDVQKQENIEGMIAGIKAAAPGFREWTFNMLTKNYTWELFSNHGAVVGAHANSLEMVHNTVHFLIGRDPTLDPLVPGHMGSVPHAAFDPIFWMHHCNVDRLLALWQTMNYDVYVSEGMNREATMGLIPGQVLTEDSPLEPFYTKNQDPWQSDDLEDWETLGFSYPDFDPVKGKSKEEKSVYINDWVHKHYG

Turning to `O=C(N[C@H](CO)[C@H](O)c1ccc([N+](=O)[O-])cc1)C(Cl)Cl` [Chloramphenicol], the MIC was 4 µg/mL in [1]; 4 µg/mL in [2]; 64 µg/mL in experiment [3]; 32 µg/mL in experiment [4]; 2 µg/mL in experiment [5]; 4 µg/mL in experiment [6]. Moreover, the zone of inhibition at 30 µg/disc in experiment [7] was determined as 25 ± 0.25 mm; in [8], 21.9 ± 0.2 mm; in experiment [9], 13.5 ± 0.15 mm; in [10] (Bacillus subtilis, ATCC6633, Bacillus subtilis ATCC 6633, read-out: Diameters of the inhibition zones), 15.7 mm; in experiment [11], 27.9 ± 0.15 mm; in [12], 22.2 ± 0.15 mm. In addition, the “Diameters of the inhibition zones” value in experiment [10] (Bacillus subtilis ATCC 6633) is given as 15.5 ± 0.15 mm.

Consider `O=C(O)c1ccccc1` [benzoic acid], for which, in experiment [13], the “Level of IL-1β” value was 2.32 ± 0.28 × 10^3 pg/mL and the “Level of tumor necrosis factor-α (TNF-α)” value was 5.70 ± 1.04 × 10^3 pg/mL.

Consider `Cc1c(C)c2c(c(C)c1O)CCC(C)(C(=O)O)O2` (stereo not drawn) [Trolox], for which, in experiment [14], the “IC50 FRAP” value is 8.52 ± 0.17 ^c mg TEs/g. Moreover, in “ABTS antioxidant assay”, the “IC50 ABTS” value is 9.33 ± 0.07 ^c mg TEs/g.

For `OC[C@H]1O[C@@H](Oc2ccc(O)cc2)[C@H](O)[C@@H](O)[C@@H]1O` [arbutin], on tyrosinase, the Tyrosinase inhibitory activity is given as 81.5 ± 2.6%.

In the case of `C[C@@H]1[C@H](O)[C@@H](C)/C=C/C=C/CC/C=C/C=C/C=C/C=C/C(O[C@H]2O[C@H](C)[C@@H](O)[C@H](N)[C@@H]2O)CC2O[C@](O)(CC(O)C(O)CCC(O)CC(O)CC(O)CC(=O)O[C@H]1C)CC(O)C2C(=O)O` (stereo partly drawn) [Nystatin], the “Controls (MIC of positive control)” value was found to be 4 µg/mL in the experiment with Candida albicans [15], 16 µg/mL in the experiment with Aspergillus niger [19] and 16 µg/mL with Trichophyton rubrum [20]. The “Diameters of the inhibition zones” value in the experiment on Aspergillus niger [16] is given as 26.4 ± 0.10 mm; in the experiment on Trichophyton rubrum [17], 24.9 ± 0.26 mm; in the experiment with Candida albicans [18] it was 29.7 ± 0.20 mm.

The MIC is the lowest concentration found to suppress growth.
